The values below are quoted from earlier work in publication PMC8453963 (Chemmedchem, 2021).

The conditions of the data set: ref [53].

Marks after values point to notes of the source that are not given here.

As for `O=C([O-])CN(CCN(CC(=O)[O-])Cc1cc(CCC(=O)NCCCCCC(=O)NCCCC[C@H](NC(=O)N[C@@H](CCC(=O)O)C(=O)O)C(=O)O)ccc1[O-])Cc1cc(CCC(=O)O)ccc1[O-].[68Ga+3].[OH3+]` [[^68Ga]Ga‐PSMA‐11], the “log D oct/PBS” value was −2.91^[a].
